In patent publication US11932908B2, “Compositions and methods for diagnosis and treatment of epilepsy” (THE REGENTS OF THE UNIVERSITY OF CALIFORNIA, priority 2004, dated 2024):
Entries after “also recorded” stand apart in the source; their conditions may differ. Where two headings read alike, the source gives them in different places.

Experiments:
[1] = tested on: EFHC1-transfected hippocampal primary culture neurons; experiment: Cell death analyses with VDCCs inhibitors; assay type: cell-based, mouse
Protocol: Cell death analyses with VDCCs inhibitors. Dissociated hippocampal primary culture neurons from embryonic day 16 mice were seeded in 24 well plates containing poly-L-lysine coated coverslips (5×10^4 cells/well). Neurons were transfected with pEGFP-EFHC1 on day 6 in vitro with antagonists and fixed 48 hours post transfection. Calcium channel inhibitors, ω-Agatoxin IVA (PEPTIDE […], INC.) for P-type (Cav2.1), ω-Conotoxin GVIA (PEPTIDE […], INC.) for N-type (Cav2.2), SNX-482 (PEPTIDE […], INC.) for R-type (Cav2.3), flunarizine (Nacalai Tesque) for T-type and nifedipine (SIGMA) for L-type VDCC, were added directly to neuronal culture 3 hrs post transfection.

[2] = tested on: L-type HVDCC; conditions: cited from earlier work
[3] = tested on: JME seizures; conditions: JME patients, cited from earlier work
[4] = biological target: N type HVDCC (Homo sapiens, UniProt Q00975); conditions: cited from earlier work
[5] = cited from earlier work
[6] = biological target: P type HVDCC (Homo sapiens, UniProt O00555); conditions: cited from earlier work
[7] = tested on: T type VDCC; conditions: cited from earlier work
[8] = tested on: high voltage activated calcium currents (HVDCC); conditions: cited from earlier work
[9] = tested on: C-terminus of Cav2.1; experiment: Co-immunoprecipitation assay in HEK cells, Cav2.1 C-terminus; assay type: binding; conditions: tagged proteins co-expressed in HEK cells
Protocol: (§1) Immunoprecipitation. HEK cells co-transfected with expression constructs were collected 20 hrs post transfection. The cells were washed in PBS, scraped and homogenized in the lysis buffer (10 mM Tris pH 8.0, 150 mM NaCl, 5 mM EDTA) supplemented with protease inhibitors (Complete; Roche). Cellular debris was removed by centrifugation at 12,000×g for 10 min at 4° C. The supernatants were precleared with protein G-Sepharose (Amersham Pharmacia Biotech) for 2 h at 4° C. and then incubated with monoclonal anti-Flag M2-Agarose beads (Sigma) or anti-Myc antibody (Santa Cruz) for 12 hrs at 4° C. Protein G-Sepharose was used for precipitation with anti-Myc antibody. The beads were washed with lysis buffer five times and then eluted either with Flag peptide or SDS sample buffer for immunoblot analyses.
(§2) Western blot analysis. Confluent HEK cells transiently transfected with expression constructs were placed on ice and washed twice with ice-cold PBS. Cells were scraped from the dishes and homogenized in a hypotonic buffer (0.25M sucrose, 10 mM Tris-HCl, 10 mM NaCl, 1 mM EDTA, pH7.5) supplemented with mixture of protease inhibitors (Complete; Roche). The lysate was centrifuged at 3,300 g for 5 min. to remove nuclei and the supernatant was used as total cytosolic protein. […]

[10] = tested on: C-terminus of Cav2.2; experiment: Co-immunoprecipitation assay in HEK cells, Cav2.2 C-terminus; assay type: binding; conditions: tagged proteins co-expressed in HEK cells
Protocol: as §1, §2

[11] = biological target: T1, PQ type VDCC (Cav2.1) (Oryctolagus cuniculus, UniProt P27884); experiment: Patch-clamp analyses of HEK cell line with P/Q type VDCCs and wild type EFHC1 or mutant constructs; assay type: cell-based
T1 construct: expressed in transfected cells; host or cells: HEK cell line

[12] = biological target: T2, R-type VDCC (Cav2.3) (Oryctolagus cuniculus, UniProt Q02343); experiment: Patch-clamp analyses of BHK cells stably expressing Cav2.3 transfected with EFHC1 constructs; assay type: cell-based; conditions: whole cell patch-clamp, 24-48 hr after transfection
T2 construct: expressed in transfected cells; host or cells: BHK (BII-104-2) cells
Protocol: Electrophysiological analysis. A baby hamster kidney (BHK) cell line BHK (BII-104-2) stably transfected with the ociE (BII), α2/δ and β1a subunits, were cultured in DMEM medium containing 10% fetal bovine serum (FBS), 30 U/mL penicillin and 30 μg/mL streptomycin. To transiently express wild type or mutant EFHC1, BHK (BII-104-2) cells were transfected with the pEGFP-C2 plasmids (Clonetech) containing EGFP fused with cDNA for EFHC1 or its mutants using SuperFect Transfection Reagent (QIAGEN). For control experiments, EGFP was transiently expressed by transfecting BHK (BII-104-2) with the same amount of pEGFP without the EFHC1 inserts. Cells were trypsinized, diluted with the DMEM medium, and plated onto glass coverslips 18 hrs after transfection. Ca^2+ currents were recorded 24-48 hr after transfection from GFP-positive cells. Currents from BHK (BII-104-2) cells were recorded at room temperature (22-25° C.) using patch-clamp techniques of whole cell mode with an EPC-9 amplifier (HEKA, Germany). Patch pipettes were made from borosilicate glass capillaries (1.5 mm outer diameter and 0.87 mm inner diameter; Hilgenberg) by using a model P-97 Flaming-Brown micropipette puller (Sutter Instrument Co., CA). Pipette resistance ranged from 2 to 3 MΩ when filled with the pipette solutions described below. The series resistance was electronically compensated to >70% and both the leakage and the remaining capacitance were subtracted by −P/6 method. Currents were sampled at 100 kHz in activation kinetics, otherwise sampled at 50 kHz and filtered at 10 kHz. Calcium currents were recorded in an external solution that contained (in mM): 3 CaCl2, 148 tetraethylammonium chloride (TEA-C1), 10 glucose, and 10 HEPES, pH adjusted to 7.4 with Tris-OH. The pipette solution contained (in mM): 85 Cs-aspartate, 40 CsCl, 4 MgCl2, 5 EGTA, 2 ATP2Na, 5 HEPES, and 8 creatine-phosphate, pH adjusted to 7.4 with CsOH. To determine voltage-dependence of activation, amplitude of tail currents at −50 mV after 5 ms test pulse (−40 to 90 mV) was normalized to the maximal tail current amplitude. […]

[13] = tested on: mouse hippocampal primary culture neurons
Protocol: Mouse hippocampal neurons primary culture. Hippocampal neurons were isolated from embryonic day 16 mice and plated at 1-2×10^5 cells per well in 24 well plate containing glass coverslips coated with poly-1-lysine and grown in serum-free NEUROBASAL™ media supplemented with B27, 0.5 mM L-glutamine (Invitrogen).
Transfection and immunostaining of mouse hippocampal neurons. […] Cultures were fixed with 4% paraformaldehyde in PBS 16 and 48 hours after transfection, permeabilized with 0.3% Triton X-100, blocked in 3% normal goat serum in PBS, and treated with mouse monoclonal anti-MAP-2 antibody (1:500; Sigma) and Alexa fluor 594 goat anti-mouse IgG antibody (1:1000; Molecular Probes).
TUNEL assay. […] Forty-eight hours after transfection, neuronal apoptosis was detected using DeadEndTM Fluorometric TUNEL System (Promega). Nuclei were visualized with Hoescht 33342 (Molecular Probes). These cells were also stained with anti-Myc antibody (1:200; Cell Signaling) and Alexa fluor 594 goat anti-rabbit IgG antibody (1:1000). All experiments were carried out in duplicate wells and at least repeated three times. Neuron cells were observed on a confocal microscope (OLYMPUS FLUOVIEW) following 48 hours post transfection.
Cell death analyses with EFHC1 mutants. […] Surviving cell numbers were scored by counting GFP fluorescent-positive cells that attached to dishes. At each counting, detached cells (dead cells) were carefully removed by changing culture medium. Morphologies of cells (cell shape, length and number of neurites, shrinkage, etc.) were not considered for the counting. Surviving cell numbers were scored at 24, 36, and 48 hours after transfection. Analyses were repeated twice by using two independently prepared expression construct DNAs. In total, neurons in seven wells of 24 well plates were counted for each transfection and time point. Experiments were performed in a blinded fashion.

[14] = tested on: Bid; experiment: Co-expression with DsRed-Bid vector (marker for caspase activation); assay type: cell-based; conditions: fetal mouse primary hippocampal neuron
Excerpt: Clarifying the exact stage or stages of apoptosis thru which myoclonin/EFHC1 acts and by what stage JME mutations reverse apoptosis is important for development of a curative treatment. Typically, apoptotic stimuli, through a Bcl-2 family mediated checkpoint, cause redistribution of cytochrome-c from mitochondria to cytosol. Cytosolic cytochrome-c binds to APAF-1 in the presence of dATP or ATP, result in recruitment and activation of caspase 9 and subsequent cleavage of caspase 3. Caspase 3 ultimately produces extensive DNA fragmentation. […] After establishing Bid activation, the next step is to establish that myoclonin acting through Bid, cause mitochondrial cytochrome C release and then caspase 3 activation. After establishing this step, studies will ask whether myoclonin also acts thru the AIF and a caspase 3 independent cell death mechanisms.

[15] = tested on: C-terminus of Cav2.3; experiment: Co-immunoprecipitation assay in HEK cells, Cav2.3 C-terminus; assay type: binding; conditions: tagged proteins co-expressed in HEK cells; listed as WT
Protocol: as §1, §2

T2 sequence (Q02343 whole entry): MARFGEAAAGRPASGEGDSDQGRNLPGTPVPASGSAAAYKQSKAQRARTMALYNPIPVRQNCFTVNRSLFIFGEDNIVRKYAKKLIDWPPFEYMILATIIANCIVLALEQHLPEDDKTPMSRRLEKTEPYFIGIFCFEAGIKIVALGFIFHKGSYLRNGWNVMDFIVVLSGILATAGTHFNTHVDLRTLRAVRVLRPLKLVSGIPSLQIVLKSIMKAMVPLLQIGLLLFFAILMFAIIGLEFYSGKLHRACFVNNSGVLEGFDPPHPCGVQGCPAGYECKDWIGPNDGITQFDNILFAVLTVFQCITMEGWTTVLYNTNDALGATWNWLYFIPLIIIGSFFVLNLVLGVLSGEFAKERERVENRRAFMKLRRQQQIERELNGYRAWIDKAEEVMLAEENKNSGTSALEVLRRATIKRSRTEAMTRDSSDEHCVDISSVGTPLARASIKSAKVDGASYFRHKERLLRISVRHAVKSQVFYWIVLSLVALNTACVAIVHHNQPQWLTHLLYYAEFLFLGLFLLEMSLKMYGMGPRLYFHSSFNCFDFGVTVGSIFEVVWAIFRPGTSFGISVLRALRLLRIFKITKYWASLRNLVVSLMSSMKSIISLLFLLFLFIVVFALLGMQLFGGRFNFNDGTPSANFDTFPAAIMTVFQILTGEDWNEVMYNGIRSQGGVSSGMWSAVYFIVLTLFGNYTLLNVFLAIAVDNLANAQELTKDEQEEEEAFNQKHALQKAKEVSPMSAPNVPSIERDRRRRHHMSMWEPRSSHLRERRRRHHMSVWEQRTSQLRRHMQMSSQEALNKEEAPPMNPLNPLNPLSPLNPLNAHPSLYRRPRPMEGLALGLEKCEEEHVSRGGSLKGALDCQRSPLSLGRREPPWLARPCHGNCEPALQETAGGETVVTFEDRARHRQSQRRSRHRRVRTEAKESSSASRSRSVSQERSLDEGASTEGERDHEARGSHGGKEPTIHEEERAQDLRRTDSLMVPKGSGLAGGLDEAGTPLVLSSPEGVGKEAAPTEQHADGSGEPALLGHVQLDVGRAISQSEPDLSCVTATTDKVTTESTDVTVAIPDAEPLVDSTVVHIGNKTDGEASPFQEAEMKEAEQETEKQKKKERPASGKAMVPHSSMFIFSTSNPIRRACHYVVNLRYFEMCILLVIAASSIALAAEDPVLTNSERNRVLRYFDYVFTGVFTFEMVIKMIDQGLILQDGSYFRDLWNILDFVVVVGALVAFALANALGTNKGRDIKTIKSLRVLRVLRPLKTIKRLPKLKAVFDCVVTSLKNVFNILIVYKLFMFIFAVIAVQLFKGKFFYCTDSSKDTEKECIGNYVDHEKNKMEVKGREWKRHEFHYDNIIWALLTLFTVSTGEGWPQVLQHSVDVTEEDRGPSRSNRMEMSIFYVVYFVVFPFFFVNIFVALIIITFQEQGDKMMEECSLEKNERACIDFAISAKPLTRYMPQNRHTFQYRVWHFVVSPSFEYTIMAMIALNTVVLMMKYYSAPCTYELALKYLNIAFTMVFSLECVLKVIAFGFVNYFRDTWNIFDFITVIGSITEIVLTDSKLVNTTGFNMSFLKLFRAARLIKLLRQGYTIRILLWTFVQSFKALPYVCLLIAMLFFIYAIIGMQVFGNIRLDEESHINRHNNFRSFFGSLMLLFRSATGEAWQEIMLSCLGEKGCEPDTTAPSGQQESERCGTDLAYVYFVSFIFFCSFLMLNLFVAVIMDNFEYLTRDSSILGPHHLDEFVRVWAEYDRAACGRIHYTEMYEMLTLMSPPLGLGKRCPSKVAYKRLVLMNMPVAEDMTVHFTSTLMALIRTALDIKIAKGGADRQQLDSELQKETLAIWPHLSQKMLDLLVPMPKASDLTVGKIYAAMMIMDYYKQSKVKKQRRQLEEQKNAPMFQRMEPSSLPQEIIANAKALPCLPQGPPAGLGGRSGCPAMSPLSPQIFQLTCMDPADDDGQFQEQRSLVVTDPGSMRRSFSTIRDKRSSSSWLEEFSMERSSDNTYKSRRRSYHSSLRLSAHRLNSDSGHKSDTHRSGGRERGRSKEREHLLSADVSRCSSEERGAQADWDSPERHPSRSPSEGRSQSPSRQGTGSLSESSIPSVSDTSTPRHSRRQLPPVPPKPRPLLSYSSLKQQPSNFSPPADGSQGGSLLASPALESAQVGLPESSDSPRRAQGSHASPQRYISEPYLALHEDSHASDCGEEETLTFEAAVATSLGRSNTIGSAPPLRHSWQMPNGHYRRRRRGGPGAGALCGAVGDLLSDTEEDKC
T2 sequence (P13806 27-1106 partner): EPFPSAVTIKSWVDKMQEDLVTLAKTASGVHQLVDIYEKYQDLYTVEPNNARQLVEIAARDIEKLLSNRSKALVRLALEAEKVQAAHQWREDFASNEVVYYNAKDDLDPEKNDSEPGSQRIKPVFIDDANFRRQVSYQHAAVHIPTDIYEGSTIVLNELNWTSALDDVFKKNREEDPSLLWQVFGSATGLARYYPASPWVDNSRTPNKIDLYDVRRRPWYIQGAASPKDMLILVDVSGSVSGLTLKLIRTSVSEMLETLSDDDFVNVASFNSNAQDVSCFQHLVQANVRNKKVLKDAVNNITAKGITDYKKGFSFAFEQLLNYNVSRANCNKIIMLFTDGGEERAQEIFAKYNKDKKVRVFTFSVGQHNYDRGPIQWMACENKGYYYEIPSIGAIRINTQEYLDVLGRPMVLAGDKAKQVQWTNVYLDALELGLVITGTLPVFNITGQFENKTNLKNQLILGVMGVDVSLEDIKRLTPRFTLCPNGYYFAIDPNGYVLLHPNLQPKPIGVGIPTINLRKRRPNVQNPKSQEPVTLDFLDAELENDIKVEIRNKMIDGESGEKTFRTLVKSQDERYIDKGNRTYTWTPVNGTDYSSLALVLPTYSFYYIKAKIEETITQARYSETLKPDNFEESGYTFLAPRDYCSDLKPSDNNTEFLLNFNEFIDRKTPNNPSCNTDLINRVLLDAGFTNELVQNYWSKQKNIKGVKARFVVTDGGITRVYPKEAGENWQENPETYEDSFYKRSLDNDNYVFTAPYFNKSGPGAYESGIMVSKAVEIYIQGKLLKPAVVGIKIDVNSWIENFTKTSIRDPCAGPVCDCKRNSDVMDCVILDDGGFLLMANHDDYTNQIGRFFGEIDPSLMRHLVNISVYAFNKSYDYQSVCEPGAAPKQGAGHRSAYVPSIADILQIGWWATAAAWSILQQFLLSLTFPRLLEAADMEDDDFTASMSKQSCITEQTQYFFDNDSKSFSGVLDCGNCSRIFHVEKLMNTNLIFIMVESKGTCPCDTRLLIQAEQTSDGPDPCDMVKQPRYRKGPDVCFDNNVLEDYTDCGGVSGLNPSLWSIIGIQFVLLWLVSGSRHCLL
T2 sequence (P19517 whole entry partner): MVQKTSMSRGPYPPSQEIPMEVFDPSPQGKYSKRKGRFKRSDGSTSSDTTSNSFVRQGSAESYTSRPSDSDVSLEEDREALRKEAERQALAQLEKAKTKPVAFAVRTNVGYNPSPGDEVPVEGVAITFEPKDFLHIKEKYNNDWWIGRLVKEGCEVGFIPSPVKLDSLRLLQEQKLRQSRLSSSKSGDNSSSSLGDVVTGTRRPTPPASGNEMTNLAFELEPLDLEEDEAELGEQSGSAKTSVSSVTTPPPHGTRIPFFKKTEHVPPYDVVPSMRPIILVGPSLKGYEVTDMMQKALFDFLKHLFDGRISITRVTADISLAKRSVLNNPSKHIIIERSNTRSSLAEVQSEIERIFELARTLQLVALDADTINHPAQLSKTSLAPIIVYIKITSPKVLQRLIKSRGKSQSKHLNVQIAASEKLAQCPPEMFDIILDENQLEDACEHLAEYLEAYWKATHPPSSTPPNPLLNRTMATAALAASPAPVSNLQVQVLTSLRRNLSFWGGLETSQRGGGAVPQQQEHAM

## SNX-482
[1]; mouse hippocampal primary culture neurons
  apoptosis induced by EFHC1 overexpression: specifically suppressed
[1]; surviving cells 48 hours after transfection, antagonist added 3 hrs post transfection
  survival rates of EFHC1-positive neurons: specifically increased

## Nc1nnc(-c2cccc(Cl)c2Cl)c(N)n1 [Lamotrigine]
[2]
  L type HVDCC: spares
[3]
  effect on JME seizures: seizure-suppressing; also recorded: suppress JME seizures; also recorded: seizure suppressing
[4]
  N type HVDCC: inhibits
[5]
  Seizure protecting plasma concentrations in humans: 3 to 14 µg/mL
[6]
  P type HVDCC: inhibits

## NS(=O)(=O)Cc1noc2ccccc12 [Zonisamide]
[7]; 500 μmol/L, cultured fetal rat cortical neurons
  T type LVDCC: reduces
[3]
  effect on JME seizures: suppress JME seizures
[3]; listed as zonizamide
  effect on JME seizures: seizure-suppressing; also recorded: seizure suppressing
[8]; 500 μmol/L
  HVDCC: does not alter
[4]; 500 μmol/L
  N-type Ca^2+ channel activity: enhances
[5]
  Seizure protecting plasma concentrations in humans: 15 to 40 µg/mL
[6]; 500 μmol/L
  P-type calcium channel activity: possibly reduces

## CC[C@@H](C(N)=O)N1CCCC1=O [Levetiracetam]
[7]
  T type VDCC: no effects
[3]
  effect on JME seizures: seizure-suppressing; also recorded: suppress JME seizures; also recorded: seizure suppressing
[8]; specific type not defined
  high voltage activated calcium currents: depresses
[5]
  Seizure protecting plasma concentrations in humans: 5 to 45 µg/mL

## CC1(C)O[C@@H]2[C@@H](CO[C@@]3(COS(N)(=O)=O)OC(C)(C)O[C@@H]23)O1 [Topiramate]
[2]; 10 μmol/L
  peak of L-type HVDCC: decreased
[3]
  effect on JME seizures: seizure-suppressing; also recorded: suppress JME seizures; also recorded: seizure suppressing
[5]
  Seizure protecting plasma concentrations in humans: 5 to 10 µg/mL

B1: EFHC1: myoclonin 1, a 640 amino acid protein with an EF-hand motif encoded by EFHC1 transcript A (SEQ ID NO: 4) (protein, listed as Homo sapiens)
chain: MVSNPVHGLPFLPGTSFKDSTKTAFHRSQTLSYRNGYAIVRRPTVGIGGDRLQFNQLSQAELDELASKAPVLTYGQPKQAPPADFIPAHVAFDKKVLKFDAYFQEDVPMSTEEQYRIRQVNIYYYLEDDSMSVIEPVVENSGILQGKLIKRQRLAKNDRGDHYHWKDLNRGINITIYGKTFRVVDCDQFTQVFLESQGIELNPPEKMALDPYTELRKQPLRKYVTPSDFDQLKQFLTFDKQVLRFYAIWDDTDSMYGECRTYIIHYYLMDDTVEIREVHERNDGRDPFPLLMNRQRVPKVLVENAKNFPQCVLEISDQEVLEWYTAKDFIVGKSLTILGRTFFIYDCDPFTRRYYKEKFGITDLPRIDVSKREPPPVKQELPPYNGFGLVEDSAQNCFTLIPKAPKKDVIKMLVNDNKVLRYLAVLESPIPEDKDRRFVFSYFLATDMISIFEPPVRNSGIIGGKYLGRTKVVKPYSTVDNPVYYGPSDFFIGAVIEVFGHRFIILDTDEYVLKYMESNAAQYSPEALASIQNHVRKREAPAPEAESKQTEKDPGVQELEALIDTIQKQLKDHSCKDNIREAFQIYDKEASGYVDRDMFFKICESLNVPVDDSLVKELIRMCSHGEGKINYYNFVRAFSN
[9]
  co-immunoprecipitation with Cav2.1 C-terminus: did not
[10]
  co-immunoprecipitation with Cav2.2 C-terminus: did not
[11]; cells co-transfected with P/Q-type VDCC and EFHC1 constructs
  Ca2+ current density of P/Q-type VDCC (Cav2.1): did not show such increase; also recorded: did not significantly affect
[11]; half-maximal voltage of activation, mean ± SEM
  Activation V0.5 (mV): 23.9 ± 1.0 mV
[11]; half-maximal voltage of inactivation, mean ± SEM
  Inactivation V0.5 (mV): −8.0 ± 0.8 mV
[11]; patch-clamp
  inactivation speed of P/Q type VDCC (decelerating effect on calcium inactivation): significantly decelerated
  voltage dependence of activation: did not significantly affect
  voltage dependence of inactivation: toward positive potentials
[11]; slope factor, mean ± SEM
  Activation k (mV): 8.63 ± 0.35 mV
  Inactivation K (mV): 6.73 ± 0.15 mV
[12]
  R-type Ca2+ current generated by Cav2.3: specifically increased; also recorded: significantly increased
[12]; listed as WT EFHC1
  R-type Ca2+ current generated by Cav2.3: significantly up-regulates
[13]; 16 hours post-transfection
  neuronal morphology: shorter neurites and lesser branches; also recorded: shorter neurites and fewer branches
[13]; 16 hours post-transfection, listed as GFP-EFHC1
  neuronal morphology: shorter neurites and less branches
[13]; 48 hours after transfection
  apoptosis (TUNEL) on EFHC1 overexpression: induced apoptosis; also recorded: overlap with TUNEL positive cells
[13]; 48 hours post-transfection
  neuronal morphology: signs of neurodegeneration and cell death; also recorded: neurodegeneratve morphologies
[13]; 48 hours post-transfection, listed as GFP-EFHC1
  neuronal morphology: signs of neurodegeneration and cell death
[14]
  Bid activation: activated Bid in a number of EFHC1-expressing neurons
[15]
  co-immunoprecipitation with Cav2.3 C-terminus: co-immunoprecipitated
